Laboratory results reported in ChEMBL document CHEMBL1201862, “PubChem BioAssay data set” (2004).
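Each compound was tested at five concentrations against cells in 96-well plates for 48 hours. Here, GI50 denotes the concentration required for 50% inhibition of growth.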 Calls of active or inactive are those of the source. No stated cut-off is given here; in the data, active = GI50 up to about 1.1 µM and inactive = higher.

Experiments:
Experiment in all cases: NCI-60 cell line screen, 48 h
786-0 = system: 786-0
A498 = system: A498
CCRF-CEM = system: CCRF-CEM
HOP-62 = system: HOP-62
HT-29 = system: HT-29
K562 = system: K562
KM12 = system: KM12
Malme-3M = system: Malme-3M
OVCAR-5 = system: OVCAR-5
RXF 393 = system: RXF 393
SF-268 = system: SF-268
SK-MEL-28 = system: SK-MEL-28
SK-MEL-2 = system: SK-MEL-2
SK-OV-3 = system: SK-OV-3
UO-31 = system: UO-31
OVCAR-4 = system: OVCAR-4

Measured: GI50

CC(C)c1cccc(C(C)C)c1NC1=CC(=O)C(=O)c2ccccc21
inactive: 786-0 > 100 µM | A498 > 100 µM | CCRF-CEM > 100 µM | HOP-62 > 100 µM | HT-29 > 100 µM | K562 > 100 µM | KM12 > 100 µM | Malme-3M > 100 µM | OVCAR-5 > 100 µM | RXF 393 > 100 µM | SF-268 > 100 µM | SK-MEL-28 > 100 µM | SK-MEL-2 > 100 µM | SK-OV-3 > 100 µM | UO-31 > 100 µM

CN1C(=O)CSC1=S [3-METHYL-RHODANINE]
inactive: 786-0 > 100 µM | A498 > 100 µM | CCRF-CEM > 100 µM | HOP-62 > 100 µM | HT-29 > 100 µM | K562 > 100 µM | KM12 > 100 µM | Malme-3M > 100 µM | OVCAR-4 > 100 µM | OVCAR-5 > 100 µM | RXF 393 > 100 µM | SF-268 > 100 µM | SK-MEL-28 > 100 µM | SK-MEL-2 > 100 µM | SK-OV-3 > 100 µM | UO-31 > 100 µM

NC(=O)c1ccccc1NC(=O)C(=O)Cc1nc2ccccc2nc1O
inactive: 786-0 > 100 µM | A498 > 100 µM | CCRF-CEM > 100 µM | HOP-62 > 100 µM | K562 > 100 µM | KM12 71.8 µM | Malme-3M > 100 µM | OVCAR-4 > 100 µM | OVCAR-5 96.2 µM | RXF 393 > 100 µM | SF-268 > 100 µM | SK-MEL-28 > 100 µM | SK-MEL-2 > 100 µM | SK-OV-3 > 100 µM | UO-31 > 100 µM

Clc1ccc(CNc2nc3ccccc3nc2-c2cccs2)c(Cl)c1
inactive: 786-0 > 100 µM | CCRF-CEM 98.9 µM | HOP-62 > 100 µM | HT-29 61 µM | K562 > 100 µM | Malme-3M > 100 µM | OVCAR-5 > 100 µM | RXF 393 73.8 µM | SF-268 > 100 µM | SK-MEL-28 > 100 µM | SK-MEL-2 > 100 µM | UO-31 > 100 µM

Cc1ccc(NC(=O)CCC(=O)C2CC(=O)CCC2=O)cc1C (stereo not drawn)
inactive: 786-0 > 100 µM | CCRF-CEM > 100 µM | HOP-62 > 100 µM | HT-29 > 100 µM | K562 > 100 µM | KM12 > 100 µM | Malme-3M > 100 µM | OVCAR-4 > 100 µM | OVCAR-5 > 100 µM | RXF 393 > 100 µM | SF-268 > 100 µM | SK-MEL-28 > 100 µM | SK-MEL-2 > 100 µM | SK-OV-3 > 100 µM | UO-31 > 100 µM

COc1cc([C@@H]2OC(=O)C3C2C(=O)O[C@H]3c2ccc(O)c(OC)c2)ccc1O (stereo partly drawn)
inactive: 786-0 > 100 µM | A498 > 100 µM | CCRF-CEM > 100 µM | HOP-62 > 100 µM | HT-29 > 100 µM | K562 > 100 µM | KM12 > 100 µM | Malme-3M > 100 µM | OVCAR-4 > 100 µM | OVCAR-5 > 100 µM | RXF 393 > 100 µM | SF-268 > 100 µM | SK-MEL-28 > 100 µM | SK-OV-3 > 100 µM | UO-31 > 100 µM

COC(=O)[C@H]1C2CC[C@@H]3C45C[C@@H](c6ccoc6)O[C@@H]4O[C@@H](O2)C31CCC5C (stereo partly drawn)
inactive: 786-0 91.2 µM | A498 > 100 µM | CCRF-CEM 56.4 µM | HOP-62 > 100 µM | HT-29 > 100 µM | K562 32.1 µM | KM12 > 100 µM | Malme-3M > 100 µM | OVCAR-4 > 100 µM | OVCAR-5 > 100 µM | SF-268 > 100 µM | SK-MEL-2 71.1 µM | SK-OV-3 > 100 µM | UO-31 68.5 µM

CC(C)C(NCc1c2ccccc2[n+]([O-])c2ccccc12)C(=O)O (stereo not drawn)
inactive: 786-0 54.7 µM | A498 > 100 µM | CCRF-CEM 35.3 µM | HOP-62 > 100 µM | HT-29 20 µM | K562 32.1 µM | KM12 52.6 µM | Malme-3M 92.7 µM | OVCAR-4 41.1 µM | OVCAR-5 > 100 µM | SF-268 32.2 µM | SK-MEL-28 44.7 µM | SK-MEL-2 81.1 µM | SK-OV-3 > 100 µM | UO-31 26.7 µM

Cn1cc2ccccc2c1-c1nc(F)nc(Oc2ccc3c(c2)CC[C@@H]2C3CC[C@@]3(C)C2C[C@H](O)[C@@H]3O)n1 (stereo partly drawn)
inactive: 786-0 16.4 µM | A498 27.3 µM | CCRF-CEM 2.66 µM | HOP-62 4.45 µM | HT-29 19.3 µM | K562 18.7 µM | KM12 17.7 µM | Malme-3M 24.8 µM | OVCAR-5 19.2 µM | RXF 393 19.4 µM | SF-268 13.1 µM | SK-MEL-28 19.7 µM | SK-MEL-2 13 µM | SK-OV-3 21.9 µM | UO-31 16.4 µM

CN/N=C(/CC(=O)c1sc(NNC(C)=O)nc1C)C(=O)Nc1ccc(OC)cc1OC
inactive: 786-0 > 100 µM | A498 > 100 µM | CCRF-CEM > 100 µM | HOP-62 > 100 µM | HT-29 > 100 µM | K562 > 100 µM | KM12 > 100 µM | Malme-3M > 100 µM | OVCAR-4 > 100 µM | OVCAR-5 > 100 µM | SF-268 > 100 µM | SK-MEL-28 > 100 µM | SK-MEL-2 > 100 µM | UO-31 > 100 µM

COc1ccccc1OCc1nnc(SCC(=O)O)n1-c1ccccc1
inactive: 786-0 > 100 µM | A498 > 100 µM | CCRF-CEM > 100 µM | HOP-62 > 100 µM | HT-29 > 100 µM | KM12 > 100 µM | Malme-3M > 100 µM | OVCAR-4 > 100 µM | OVCAR-5 > 100 µM | SF-268 > 100 µM | SK-MEL-28 > 100 µM | SK-MEL-2 > 100 µM | SK-OV-3 > 100 µM | UO-31 > 100 µM

COC(=O)/C=C(C)/C=C/c1cc(C(C)=O)c(C)o1
inactive: 786-0 > 100 µM | CCRF-CEM > 100 µM | HOP-62 > 100 µM | HT-29 > 100 µM | K562 62.1 µM | KM12 > 100 µM | Malme-3M > 100 µM | OVCAR-4 94.2 µM | OVCAR-5 78.7 µM | SF-268 > 100 µM | SK-MEL-2 > 100 µM | SK-OV-3 > 100 µM | UO-31 86.9 µM

O=C(NCc1ccc2ccc3cccnc3c2n1)c1ccc[n+](Cc2ccccc2)c1
inactive: 786-0 > 100 µM | CCRF-CEM > 100 µM | HOP-62 > 100 µM | HT-29 98.6 µM | K562 83.8 µM | KM12 91.4 µM | Malme-3M 75.2 µM | OVCAR-4 > 100 µM | OVCAR-5 > 100 µM | RXF 393 > 100 µM | SF-268 > 100 µM | SK-MEL-28 > 100 µM | SK-MEL-2 > 100 µM | SK-OV-3 > 100 µM | UO-31 > 100 µM
